Data: patent US20240398783A1, “Compounds and Pharmaceutical Compositions Comprising Inhibitors of Amyloid Peptide Interactions with Glycosaminoglycans, Methods of Treatment and Use Thereof” (Gismo Therapeutics, Inc., priority 2021, published 2024)
Structures can show the parent of a compound that is named as a salt. Where two headings read alike, the source gives them in different places.

Legend:
[1] = biological target: Tau binding to purified human brain membranes (Homo sapiens, UniProt P10636); test: Inhibition of Tau binding to purified human brain cell membranes (ELISA)
Tau binding to purified human brain membranes, sequence (P10636 with tags, fused parts or gaps): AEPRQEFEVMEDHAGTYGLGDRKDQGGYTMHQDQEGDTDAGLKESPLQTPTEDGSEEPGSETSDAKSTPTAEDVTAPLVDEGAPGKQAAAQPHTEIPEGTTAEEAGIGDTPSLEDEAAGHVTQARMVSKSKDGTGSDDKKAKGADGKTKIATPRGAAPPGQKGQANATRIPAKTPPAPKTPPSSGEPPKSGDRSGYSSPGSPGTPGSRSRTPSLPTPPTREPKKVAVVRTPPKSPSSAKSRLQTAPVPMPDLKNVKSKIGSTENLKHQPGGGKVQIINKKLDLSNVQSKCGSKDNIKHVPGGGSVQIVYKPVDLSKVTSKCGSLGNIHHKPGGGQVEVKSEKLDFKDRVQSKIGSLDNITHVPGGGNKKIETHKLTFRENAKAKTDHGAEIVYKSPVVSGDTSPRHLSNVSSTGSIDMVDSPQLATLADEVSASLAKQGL
Description: (§1) Purified human brain cell membranes were prepared by differential centrifugation as follows. Five grams of frozen human brain postmortem tissue (obtained from University of Kentucky Alzheimer's Disease Center Tissue Bank) was homogenized in 50 ml HEPES-Buffered sucrose (0.32M sucrose, 4 mM HEPES pH7.4, protease inhibitors) with a motor driven glass-teflon homogenizer. After removing nuclear and cell debris by centrifugation of homogenates at 1,000×g for 10 min at 4 degree Celsius, post-nuclear supernatant was centrifuged at 100,000×g for 30 minutes to yield the crude membrane pellet. Crude membrane pellet was re-suspended in 0.32M sucrose, then centrifuged again at 100,000×g for 30 minutes to yield washed membrane pellet. Membrane pellet was resuspended in sterile PBS (pH7.4), quickly frozen, and kept in aliquots at −80 degrees Celsius. This preparation contains human brain cell membranes. Protein concentration was measured with BCA protein assay kit (Pierce Cat. No. 23227). Purified brain membranes were diluted to 0.01 mg/ml in PBS (pH 7.4) and then added to a 96 well polystyrene ELISA plate (NUNC Cat. No. 449824; 100 μl per well). Plates were incubated Over Night (ON) at 4 degrees Celsius. Following the incubation, the plate was washed consecutively, by immersion, with de-ionized water and PBS (pH 7.4). The ELISA plate was then blocked with nonfat milk (2%, 200 μl per well) for 2 hours at Room Temperature (RT). Following blocking, the plate was washed with de-ionized water then PBS (pH 7.4). GBAPs were dissolved and diluted in PBS (pH 6.5, supplemented with 0.1% BSA) at desired concentrations, added to the ELISA plates coated with brain membranes (100 μl per well) and incubated for 2 hours at RT with gentle shaking. Following incubation, the plate was washed with de-ionized water and three times with PBS (pH 6.5) plus Tween. Bound GBAP was detected by a monoclonal antibody specific for that GBAP, followed by incubation with secondary antibody conjugated to horseradish peroxidase (HRP). Antibody was diluted in PBS (pH6.5 supplemented with 1% BSA). Following each incubation with antibody, the plate was washed with de-ionized water and three times with PBS (pH6.5) wash buffer containing 0.1% Tween. The peroxidase substrate chromogen, TMB (Dako Cat. No. S1599) was added (100 μl per well) to the ELISA plate and incubated at room temperature. After 5 minutes ELISA Stop Solution (hydrochloric acid 1N, sulfuric acid 3N) was added (100 μl per well) to stop the peroxidase catalyzed colorimetric reaction. The Optical Density of the samples was measured at 450 nm using an ELISA plate reader (BioTek Synergy H1). Following color development, the % inhibition compared to control was determined. IC-50s were calculated using GraphPad Prism software.
The assay was performed as described in Example 49, with the following modifications.
Following to coating the plates with purified human brain cell membranes, plates were washed as described. The compounds were dissolved in DMSO at 10 mM final concentration and further diluted prior to assay. DMSO concentration in the screening well was up to 2%. Individual compounds were co-incubated with Tau on plates coated with purified human brain membranes. Tau purchased from rPeptide (Cat. No. T1001) was dissolved in DMSO (Sigma Cat. No. D2650), quickly frozen and kept in aliquots at −80 degrees Celsius. Tau dissolved in PBS (pH 6.5, supplemented with BSA, 0.1%) was added to the ELISA plate (100 μl per well) and incubated for 2 hours at RT with gentle shaking. Following the incubation, the plate was washed with de-ionized water and three times with PBS (pH 6.5) plus Tween. Bound Tau was detected by anti-Tau Monoclonal Antibody D-8 (Santa Cruz Cat. No. sc-166060), followed by secondary anti-IgG antibody conjugated to HRP (R&D System, Cat. No. HAF007). Following to color development with TMB, as described in Example 49, the Optical Density of the samples was measured at 450 nm using an ELISA plate reader. […]

[2] = biological target: T1, Amyloid-beta(1-42) oligomer binding to purified human brain membranes (Homo sapiens, UniProt P05067); test: Inhibition of Amyloid-beta(1-42) oligomer binding to purified human brain cell membranes (ELISA); conditions: Abeta(1-42) oligomers, read-out: Abeta42/Membrane Activity (IC-50)
T1 construct: Beta-amyloid (1-42) was purchased from rPeptide (Cat. No. A1163); purchased rPeptide A1163
T1 sequence (P05067 672-713): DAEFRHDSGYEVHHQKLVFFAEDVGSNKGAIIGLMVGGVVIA
Description: as §1
(§2) The assay was performed as described in Example 49, with the following modifications. Following to coating the plates with purified human brain cell membranes, plates were washed as described. The compounds were dissolved in DMSO at 10 mM final concentration and further diluted prior to assay. DMSO concentration in the screening well was up to 2%. Individual compounds were co-incubated with Beta-amyloid peptides on plates coated with purified human brain membranes. Beta-amyloid (1-42) oligomers were prepared as described in Example 2. Beta-amyloid (1-40) from rPeptide (Cat No. A1153) was dissolved in DMSO, quickly frozen and kept in aliquots at −80 degrees Celsius. Beta-amyloid (1-42) oligomers or Beta-amyloid (1-40) dissolved in PBS (pH 6.5, supplemented with BSA, 0.1%) were added to the ELISA plate (100 μl per well) and incubated for 2 hours at RT with gentle shaking. Following the incubation, the plate was washed with de-ionized water and three times with PBS (pH 6.5) plus Tween. […]

[3] = biological target: T2, Amyloid-beta(1-40) binding to purified human brain membranes (Homo sapiens, UniProt P05067); test: Inhibition of Amyloid-beta(1-40) binding to purified human brain cell membranes (ELISA); conditions: Abeta(1-40), read-out: Abeta40/Membrane Activity (IC-50)
T2 construct: Beta-amyloid (1-40) from rPeptide (Cat No. A1153) was dissolved in DMSO; purchased rPeptide A1153
T2 sequence (P05067 672-711): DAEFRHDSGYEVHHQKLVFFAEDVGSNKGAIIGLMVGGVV
Description: as §1, §2

[4] = Tau, purified human brain membranes, read-out: Tau/Membrane Activity (IC-50)

SMILES | IC50 [1] [µM] | IC50 [2] [µM] | IC50 [1, 4] [µM] | IC50 [3] [µM]
COc1ccc2c(NN=Cc3ccc(-n4ccnc4)c(C)c3)ccnc2c1 [Compound 12, 4-(2-(4-(1H-imidazol-1-yl)-3-methylbenzylidene)hydrazineyl)-7-methoxyquinoline] | 29.9 | – | – | –
Fc1ccc2c(N/N=C/c3ccc(-n4ccnc4)cc3)ccnc2c1 [Compound 5, (E)-4-(2-(4-(1H-imidazol-1-yl)benzylidene)hydrazinyl)-7-fluoroquinoline] | 0.84 | – | – | –
Clc1ccc2c(N/N=C/c3ccc(-n4cccn4)cc3)ccnc2c1 [Compound 3, (E)-4-((E)-(4-(1H-pyrazol-1-yl)benzylidene)hydrazono)-7-chloro-1,4-dihydroquinoline] | 8.82 | 11.5 | – | –
Cc1cc(-n2ccnc2)ccc1/C=N/Nc1ccnc2cc(Cl)ccc12 [Compound 1, (E)-4-((E)-(4-(1H-imidazol-1-yl)-2-methylbenzylidene)hydrazono)-7-chloro-1,4-dihydroquinoline] | – | 2.97 | 0.49 | –
Cc1ncn(-c2ncc(Nc3ncnc4cc(Cl)ccc34)cc2O)c1C [Compound 40, 5-((7-chloroquinazolin-4-yl)amino)-2-(4,5-dimethyl-1H-imidazol-1-yl)pyridin-3-ol phosphoric acid salt] | 65.1 | 4.36 | – | –
Clc1ccc2c(Nc3ccc(-n4ccnc4)nc3)ncnc2c1 [Compound 41, N-(6-(1H-imidazol-1-yl)pyridin-3-yl)-7-chloroquinazolin-4-amine] | – | – | 5.58 | 18.7
Clc1ccc2c(N/N=C/c3ccc(-n4ccnc4)cc3)ccnc2c1 [Compound 38, 4-(2-(4-(1H-imidazol-1-yl)benzylidene)hydrazineyl)-7-chloroquinoline dihydrochloride] | 4.86 | 4.62 | – | 0.36
Fc1ccc2c(N/N=C/c3ccc(CN4CCOCC4)cc3)ccnc2c1 [Compound 6, (E)-4-(4-((2-(7-fluoroquinolin-4-yl)hydrazono)methyl)benzyl)morpholine] | 0.63 | – | – | –
Clc1ccc2c(N/N=C/c3ccc(-n4ccnc4)nc3)ccnc2c1 [Compound 14, (E)-4-(2-((6-(1H-imidazol-1-yl)pyridin-3-yl)methylene)hydrazineyl)-7-chloroquinoline hydrochloride] | 1.86 | 6.03 | – | 18.4
Cc1ncn(-c2ccc(/C=N/Nc3ccnc4cc(Cl)ccc34)cc2)c1C [Compound 2, (E)-7-chloro-4-((E)-(4-(4,5-dimethyl-1H-imidazol-1-yl)benzylidene)hydrazono)-1,4-dihydroquinoline] | 11.4 | – | – | –
C/C(=N\Nc1ncnc2cc(Cl)ccc12)c1ccc(-n2cnc(C)c2C)nc1 [Compound 16, 7-chloro-4-(2-(1-(6-(4,5-dimethyl-1H-imidazol-1-yl)pyridin-3-yl)ethylidene)hydrazineyl)quinazoline phosphate] | 9.61 | 3.29 | – | 2.88
COc1cc2nccc(NN=Cc3ccc(-n4ccnc4)c(C)c3)c2cc1OC [Compound 11, 4-(2-(4-(1H-imidazol-1-yl)-3-methylbenzylidene)hydrazineyl)-6,7-dimethoxyquinoline hydrochloride] | 8.31 | – | – | –
CCN1CCN(c2ccc(Nc3ccnc4cc5ccccc5cc34)cc2)CC1 [Compound 39, N-(4-(4-ethylpiperazin-1-yl)phenyl)benzo[g]quinolin-4-amine] | 54.1 | – | – | 1.46
C/C(=N\Nc1nncc2cc(Cl)ccc12)c1ccc(-n2cc(C)nc2C)nc1 [Compound 24, (E)-6-chloro-1-(2-(1-(6-(2,4-dimethyl-1H-imidazol-1-yl)pyridin-3-yl)ethylidene)hydrazineyl)phthalazine] | – | 6.67 | 2.56 | 24.5
CN1CCN(Cc2ccc(/C=N/Nc3ccnc4cc(Cl)ccc34)cc2)CC1 [Compound 7, (E)-7-chloro-4-(2-(4-((4-methylpiperazin-1-yl)methyl)benzylidene)hydrazinyl)quinolone] | 1.22 | – | – | –
